Measurements reported in patent EP0816362A1, “THIAZOLE DERIVATIVES” (TAISHO PHARMACEUTICAL CO. LTD, priority 1995, dated 1996).

Target: T1, human D4.2 receptor (Homo sapiens, UniProt P21917, DEL265-296)
T1 sequence (P21917 with tags, fused parts or gaps DEL265-296): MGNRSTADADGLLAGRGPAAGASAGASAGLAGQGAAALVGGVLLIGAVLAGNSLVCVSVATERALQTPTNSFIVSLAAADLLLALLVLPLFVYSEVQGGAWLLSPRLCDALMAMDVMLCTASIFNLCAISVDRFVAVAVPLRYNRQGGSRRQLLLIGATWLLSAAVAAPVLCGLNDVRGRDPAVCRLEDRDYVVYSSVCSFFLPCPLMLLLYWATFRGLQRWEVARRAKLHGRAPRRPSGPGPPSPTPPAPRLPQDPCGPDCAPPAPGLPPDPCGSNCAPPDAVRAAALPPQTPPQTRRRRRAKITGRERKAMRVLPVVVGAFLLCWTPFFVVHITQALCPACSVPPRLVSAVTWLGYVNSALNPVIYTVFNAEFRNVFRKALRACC
Experiment: Dopamine D4 receptor binding experiment ([3H]-spiperone)
Procedure: As a receptor preparation, Chinese hamster ovary (CHO) cell membranes where human D4.2 receptor was expressed were used.
As [^3H]-labeled ligand, [^3H]-spiperone was used.
Human D4.2 receptor binding test: CHO cell membranes where human D4.2 receptor was expressed, [^3H]-spiperone (0.5 nM) and a test drug were reacted at 27°C for 2 hours in 50 mM Tris-HCl buffer, pH 7.4 containing 5 mM EDTA, 1.5 mM calcium chloride, 5 mM potassium chloride and 120 mM sodium chloride.
After the reaction, the sample was filtered under suction through a glass filter (GF/B), and the radioactivity of the filter paper was determined in a liquid scintillation spectrometer.
The binding of [^3H]-spiperone in the presence of 10 µM haloperidol was assumed to be non-specific binding, and the difference between the total binding and the non-specific binding was assumed to be specific binding.

[1] = inhibition of [3H]-spiperone binding, human D4.2 receptor
[2] = CHO cell membranes expressing human D4.2 receptor, [3H]-spiperone (0.5 nM), 27°C, 2 hours

Row | SMILES | IC50 [1] [nM] | IC50 [2] [nM]
1 | Cc1nc(-c2ccc(F)cc2)c(CCN2CCC(=Cc3ccc(Cl)cc3)CC2)s1 [Compound L-24] | 11.5 | –
2 | Nc1nc(-c2ccc(F)cc2)c(CCN2CCC(=Cc3ccc(Cl)cc3)CC2)s1 [Compound L-08] | 73.9 | –
3 | C=C(c1ccc(F)cc1)C1CCN(CCc2sc(C)nc2-c2ccc(F)cc2)CC1 [Compound K-32] | 12.6 | –
4 | Nc1nc(-c2ccc(F)cc2)c(C2CCN(CCCC(=O)c3ccc(F)cc3)C2)s1 (single isomer, unassigned; (+)) [Compound F-05, (+)-2-amino-4-(4-fluorophenyl)-5-[1-[4-(4-fluorophenyl)-4-oxobutyl]pyrrolidin-3-yl]thiazole] | – | 6.58
5 | Nc1nc(-c2ccc(F)cc2)c(C2CCN(CCCC(=O)c3ccc(F)cc3)C2)s1 [Compound D-02, 2-amino-4-(4-fluorophenyl)-5-[1-[4-(4-fluorophenyl)-4-oxobutyl]pyrrolidin-3-yl]thiazole] | – | 6.58
6 | Cc1nc(-c2ccc(F)cc2)c(CCN2CCC(=Cc3cccc(F)c3)CC2)s1 [Compound L-27] | 1.96 | –
7 | Cc1nc(-c2ccc(F)cc2)c(CCN2CCC(C(=O)c3ccc(F)cc3F)CC2)s1 [Compound K-23] | – | 11.5
8 | Cc1nc(-c2ccccc2)c(CCN2CCC(=Cc3ccc(F)cc3)CC2)s1 [Compound L-23] | 3.13 | –
9 | Nc1nc(-c2ccc(F)cc2)c(C2CCN(CCCC(c3ccc(F)cc3)c3ccc(F)cc3)C2)s1 (racemic) [Compound B-19] | – | 55.9
10 | Cc1nc(-c2ccc(F)cc2)c(C2CCN(CCCC(=O)c3ccc(F)cc3)C2)s1 (racemic) [Compound D-15] | – | 4.13
11 | Nc1nc(-c2ccc(F)cc2)c(CCCN2CCC(=Cc3ccc(F)cc3)CC2)s1 [Compound L-02] | 38.5 | –
12 | Nc1nc(-c2ccc(F)cc2)c(C2CCN(CCCN3C(=O)Cc4cc(F)ccc43)C2)s1 (centres unmarked) [Compound H-08] | – | 46.4
13 | Cc1ccc(C(=O)C2CCN(CCc3sc(N)nc3-c3ccc(F)cc3)CC2)cc1 [Compound K-16] | – | 9.55
14 | O=C(c1ccc(F)cc1)C1CCN(CCc2sc(-c3ccccc3)nc2-c2ccc(F)cc2)CC1 [Compound K-35] | 32 | –
15 | CNc1nc(-c2ccc(F)cc2)c(CCN2CCC(C(=O)c3ccc(F)cc3)CC2)s1 [Compound K-36] | 3.43 | –
16 | CNc1nc(-c2ccc(F)cc2)c(CCN2CCC(=Cc3ccc(F)cc3)CC2)s1 [Compound L-35] | 2.15 | –
17 | Cc1nc(-c2ccc(F)cc2)c(CCN2CCC(=Cc3ccc(F)cc3)CC2)s1 [Compound L-17] | 12.6 | –
18 | Cc1nc(-c2ccc(Br)cc2)c(CCN2CCC(=Cc3ccc(F)cc3)CC2)s1 [Compound L-19] | 16.7 | –
19 | CC(=C1CCN(CCc2sc(N)nc2-c2ccc(F)cc2)CC1)c1ccc(F)cc1 [Compound L-15] | 7.92 | –
20 | Nc1nc(-c2ccc(F)cc2)c(CCN2CCC(Cc3ccccc3)CC2)s1 [Compound K-04] | – | 46.4
21 | COc1ccc(C=C2CCN(CCc3sc(N)nc3-c3ccc(F)cc3)CC2)cc1 [Compound L-10] | 29.2 | –
22 | Cc1nc(-c2ccc(Cl)cc2)c(CCN2CCC(=Cc3ccc(F)cc3)CC2)s1 [Compound L-18] | 9.55 | –
23 | Cc1nc(-c2ccc(F)cc2)c(CCN2CCC(=Cc3cccc(C(F)(F)F)c3)CC2)s1 [Compound L-29] | 10.5 | –
24 | Nc1nc(-c2ccc(F)cc2)c(CCN2CCC(C(=O)c3ccccc3)CC2)s1 [Compound K-09] | – | 42.3
25 | Nc1nc(-c2ccc(F)cc2)c(CCN2CCC(=Cc3cccc(F)c3)CC2)s1 [Compound L-11] | 2.85 | –
26 | COc1ccc(-c2nc(C)sc2CCN2CCC(=Cc3ccc(F)cc3)CC2)cc1Br [Compound L-22] | 13.9 | –
27 | Cc1nc(-c2ccc(F)cc2)c(CCN2CCC(=Cc3ccc(Br)cc3)CC2)s1 [Compound L-25] | 29.2 | –

Results, then the molecule that gave them:

Row | IC50 [1] [nM] | IC50 [2] [nM] | SMILES
28 | – | 8.7 | Nc1nc(-c2ccccc2)c(CCN2CCC(C(=O)c3ccc(F)cc3)CC2)s1 [Compound K-10]
29 | 2.6 | – | Cc1ccc(-c2nc(C)sc2CCN2CCC(=Cc3ccc(F)cc3)CC2)cc1 [Compound L-21]
30 | – | 4.53 | Cc1nc(-c2ccc(Cl)cc2)c(CCN2CCC(C(=O)c3ccc(F)cc3)CC2)s1 [Compound K-26]
31 | 3.76 | – | Nc1nc(-c2ccc(F)cc2)c(CCN2CCC(=Cc3ccccc3)CC2)s1 [Compound L-14]
32 | – | 7.22 | Nc1nc(-c2ccc(F)cc2)c(C2CCN(CCCc3nsc4cc(F)ccc34)C2)s1 (centres unmarked) [Compound E-11, 2-amino-4-(4-fluorophenyl)-5-[1-[3-(6-fluoro-1,2-benzisothiazol-3-yl)propyl]pyrrolidin-3-yl]thiazole]
33 | – | 32 | Nc1nc(-c2cccc(F)c2)c(C2CCN(CCCC(=O)c3ccc(F)cc3)C2)s1 (racemic) [Compound D-09]
34 | 0.705 | – | COc1ccc(-c2nc(C)sc2CCN2CCC(C(=O)c3ccc(F)cc3)CC2)cc1Br [Compound K-31]
35 | 10.5 | – | Nc1nc(-c2ccc(F)cc2)c(CCN2CCC(CC(=O)c3ccc(F)cc3)C2)s1 (centres unmarked) [Compound K-37]
36 | 2.85 | – | Nc1nc(-c2ccc(F)cc2)c(CCN2CCC(=Cc3ccc(F)cc3)CC2)s1 [Compound L-01]
37 | – | 46.4 | Nc1nc(-c2ccc(F)cc2)c(C2CCN(CCCN3C(=O)CCc4cc(F)ccc43)C2)s1 (centres unmarked) [Compound H-04]
38 | – | 10.5 | Nc1nc(-c2ccc(F)cc2)c(C2CCN(CCCc3noc4cc(F)ccc34)C2)s1 (centres unmarked) [Compound E-02, 2-amino-4-(4-fluorophenyl)-5-[1-[3-(6-fluoro-1,2-benzisoxazol-3-yl)propyl]pyrrolidin-3-yl]thiazole]
39 | – | 7.92 | Nc1nc(-c2ccc(F)cc2)c(CCN2CCC(C(=O)c3ccc(F)cc3)CC2)s1 [Compound K-01, 2-amino-4-(4-fluorophenyl)-5-[2-[4-(4-fluorobenzoyl)piperidin-1-yl]ethyl]thiazole]
40 | 3.43 | – | Fc1ccc(-c2ncsc2CCN2CCC(=Cc3ccccc3)CC2)cc1 [Compound L-33]
41 | – | 35.1 | Nc1nc(-c2ccc(F)cc2)c(CCN2CCC(C(=O)c3ccc(Br)cc3)CC2)s1 [Compound K-15]
42 | – | 11.5 | Cc1nc(-c2ccc(F)cc2)c(CCN2CCC(C(=O)c3ccc(Br)cc3)CC2)s1 [Compound K-21]
43 | – | 38.5 | COc1ccc(C(=O)C2CCN(CCc3sc(C)nc3-c3ccc(F)cc3)CC2)cc1 [Compound K-22]
44 | – | 12.6 | CNc1nc(-c2ccc(F)cc2)c(C2CCN(CCCC(=O)c3ccc(F)cc3)C2)s1 (racemic) [Compound D-13]
45 | 22.1 | – | Nc1nc(-c2ccccc2)c(CCN2CCC(=Cc3ccc(F)cc3)CC2)s1 [Compound L-07]
46 | – | 20.1 | C=C(c1ccc(F)cc1)C1CCN(CCc2sc(N)nc2-c2ccc(F)cc2)CC1 [Compound K-18]
47 | 22.1 | – | Nc1nc(-c2ccc(Cl)cc2)c(CCN2CCC(=Cc3ccc(F)cc3)CC2)s1 [Compound L-03]
48 | – | 2.36 | Cc1ccc(-c2nc(C)sc2CCN2CCC(C(=O)c3ccc(F)cc3)CC2)cc1 [Compound K-29]
49 | – | 13.9 | Nc1nc(-c2ccc(F)cc2)c(C2CCN(CCCc3nsc4ccccc34)C2)s1 (centres unmarked) [Compound E-10]
50 | 2.36 | – | Nc1nc(-c2ccc(F)cc2)c(CCN2CCC(=Cc3ccccc3F)CC2)s1 [Compound L-12]
51 | 4.13 | – | Cc1ccc(-c2nc(N)sc2CCN2CCC(=Cc3ccc(F)cc3)CC2)cc1 [Compound L-06]
52 | 6.58 | – | Fc1ccc(C=C2CCN(CCc3scnc3-c3ccc(F)cc3)CC2)cc1 [Compound L-32]
53 | 13.9 | – | Nc1nc(-c2ccc(Br)cc2)c(CCN2CCC(=Cc3ccc(F)cc3)CC2)s1 [Compound L-04]
